For 22 compounds, IC50 results are on record in PubChem BioAssay AID624167 (Sanford-Burnham Center for Chemical Genomics, 2012).

For assay [1], the system named is PEG-3. Nature of the assay: inhibition of PEG-3 promoter-driven reporter – cell-based, HeLa, luciferase, CREF/GAPDH counter-screen panel, dose response (AID 624167). Conditions: HeLa PEG-Prom luciferase reporter, overnight, CREF/GAPDH counter-screens.
Assay [2] deals with PEG-3 (UniProt Q6IN02). The description is as above. Conditions: HeLa PEG-Prom luciferase reporter, overnight, CREF/GAPDH counter-screens, mean of runs.
Chain of PEG-3 (UniProt Q6IN02) (Q6IN02 whole entry, looked up): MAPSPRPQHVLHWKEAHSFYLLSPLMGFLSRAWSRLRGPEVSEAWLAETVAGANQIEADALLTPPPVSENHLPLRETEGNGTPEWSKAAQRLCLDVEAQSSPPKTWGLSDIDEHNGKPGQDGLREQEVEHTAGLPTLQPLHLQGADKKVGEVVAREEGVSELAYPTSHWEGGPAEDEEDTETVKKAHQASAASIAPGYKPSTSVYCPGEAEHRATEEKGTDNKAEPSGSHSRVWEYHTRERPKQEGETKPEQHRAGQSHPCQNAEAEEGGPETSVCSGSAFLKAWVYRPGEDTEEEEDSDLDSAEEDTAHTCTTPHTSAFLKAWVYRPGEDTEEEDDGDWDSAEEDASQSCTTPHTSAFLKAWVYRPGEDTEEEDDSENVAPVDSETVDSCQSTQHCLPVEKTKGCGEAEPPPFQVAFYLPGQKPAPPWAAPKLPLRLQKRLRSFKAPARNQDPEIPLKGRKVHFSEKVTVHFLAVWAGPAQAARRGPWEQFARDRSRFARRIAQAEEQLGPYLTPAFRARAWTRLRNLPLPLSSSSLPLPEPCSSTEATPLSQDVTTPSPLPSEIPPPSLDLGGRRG
Assay in assay [3]: as above
Conditions: CREF/GAPDH counter-screens; GAPDH; mean of runs.

The subject of assay [4] is Rat fibroblasts (CREF). The assay is described as above. To be noted: CREF/GAPDH counter-screens.
In assay [5] the test system is GAPDH. The assay is described as above. To be noted: CREF/GAPDH counter-screens.
[6] abbreviates: run 1, dose range 1, individual replicate IC50 per panel.
[7] abbreviates: run 2, dose range 1, individual replicate IC50 per panel.

Calls of active or inactive are those of the source.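 Rule for the calls: active = mean IC50 for reducing PEG3 promoter reporter signal at or below a set limit, with IC50 above the limit in both counter screens; inactive = the rest, including counter screen hits.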

As for `O=C(N/N=C\c1c(O)ccc2ccccc12)c1ccc(Cn2cccn2)o1`, the IC50 is 3.09 µM in assay [1] (setting [6]); 9.35 µM in assay [1] (setting [7]); 6.22 µM in assay [2]; > 100 µM (inactive) in assay [3]; > 100 µM (inactive) in assay [4] (mean of runs); more than 100 µM in assay [4] (setting [6]). In addition, the IC50 in assay [4] (setting [7]), in assay [5] (setting [6]) and in assay [5] (setting [7]) was more than 100 µM each time.
`Cc1cc(Br)ccc1NC(=O)CNC(=O)Cn1ncc(Cl)c(Cl)c1=O`: the IC50 was 8.31 µM in assay [1] (setting [6]); 4.87 µM in assay [1] (setting [7]); 6.59 µM in assay [2]; 10.9 µM in assay [3]; 54.2 µM (inactive) in assay [4] (mean of runs); 8.5 µM in assay [4] (setting [6]). Besides, the results for the IC50 in assay [4] (setting [7]), in assay [5] (setting [6]) and in assay [5] (setting [7]) were more than 100 µM, 10.1 µM and 11.8 µM, respectively.
As for `CCN(CC)S(=O)(=O)c1cccc(C(=O)N/N=C(\C)c2ccc(O)cc2O)c1`, the IC50 was 2.77 µM in assay [1] (setting [6]); 1.33 µM in assay [1] (setting [7]); 2.05 µM in assay [2]; > 100 µM (inactive) in assay [3]; 74.1 µM (inactive) in assay [4] (mean of runs); more than 100 µM in assay [4] (setting [6]). For the same compound, the IC50 in assay [4] (setting [7]) was 48.2 µM; in assay [5] (setting [6]) it was more than 100 µM; in assay [5] (setting [7]), more than 100 µM.
For `O=C(Nc1ccccc1C(=O)Nc1nnc(C(F)(F)F)s1)c1ccccc1`, the IC50 in assay [1] (setting [6]) was 7.01 µM; in assay [1] (setting [7]) it was more than 100 µM; in assay [3], 7.97 µM; in assay [4] (mean of runs), > 100 µM (inactive); in assay [4] (setting [6]), more than 100 µM; in assay [4] (setting [7]), more than 100 µM. Further, the results for the IC50 in assay [5] (setting [6]) and in assay [5] (setting [7]) were 2.28 µM and 13.7 µM, respectively. Further, in assay [2], the IC50 result is “inactive”.
Take `Cc1ccc(OCC(=O)c2cc(C)n(-c3ccccc3)c2C)c([N+](=O)[O-])n1`: the IC50 in assay [1] (setting [6]) was 0.686 µM; in assay [1] (setting [7]), more than 100 µM; in assay [3] it was 5.5 µM; in assay [4] (mean of runs) it was > 100 µM (inactive); in assay [4] (setting [6]), more than 100 µM; in assay [4] (setting [7]), more than 100 µM. Also, the IC50 in assay [5] (setting [6]) was found to be 2.62 µM; in assay [5] (setting [7]) it was 8.38 µM. Besides, in assay [2], the IC50 result is “inactive”.
Consider `COc1cccc(/C=N/NC(=O)c2c(C)nc3ccc(Cl)cn23)c1O`, for which the IC50 in assay [1] (setting [6]) was 0.994 µM; in assay [1] (setting [7]) it was 0.513 µM; in assay [2], 0.754 µM; in assay [3] it was > 100 µM (inactive); in assay [4] (mean of runs), 69.6 µM (inactive); in assay [4] (setting [6]) it was more than 100 µM. Besides, the IC50 is 39.3 µM in assay [4] (setting [7]), more than 100 µM in assay [5] (setting [6]) and more than 100 µM in assay [5] (setting [7]).
On to `O=C(Nc1ccc(Cc2ccncc2)cc1)c1ccc([N+](=O)[O-])o1`, for which the 50% inhibitory concentration (IC50) was 13.2 µM in assay [1] (setting [6]); 7.69 µM in assay [1] (setting [7]); 10.5 µM in assay [2]; 14.2 µM in assay [4] (mean of runs); 14 µM in assay [4] (setting [6]); 14.3 µM in assay [4] (setting [7]). Further, the IC50 in assay [5] (setting [6]) was determined as 56.6 µM; in assay [5] (setting [7]), 63.3 µM. In addition, the IC50 entry in assay [3] was “inactive”.
`C/C(=N\NC(=O)c1cc(C2CC2)nc2ccccc12)c1ccc(O)cc1O`: the IC50 in assay [1] (setting [6]) is 3.07 µM; in assay [1] (setting [7]), 3.45 µM; in assay [2], 3.26 µM; in assay [3], > 100 µM (inactive); in assay [4] (mean of runs), 60.7 µM (inactive); in assay [4] (setting [6]) it was 21.5 µM. In addition, the IC50 in assay [4] (setting [7]), in assay [5] (setting [6]) and in assay [5] (setting [7]) was more than 100 µM throughout.
With `CCCCCCN1C=C/C(=C\C=C(C#N)C#N)c2ccccc21`, the IC50 was 13.4 µM in assay [1] (setting [6]); 7.03 µM in assay [1] (setting [7]); 10.2 µM in assay [2]; 55.3 µM (inactive) in assay [4] (mean of runs); more than 100 µM in assay [4] (setting [6]); 10.7 µM in assay [4] (setting [7]). Moreover, the IC50 in assay [5] (setting [6]) is 1.24 µM; in assay [5] (setting [7]), more than 100 µM. For the same compound, the IC50 entry in assay [3] was “inactive”.
As to `COc1cccc(OC)c1C(=O)Nc1cc(C)nn1-c1nc2ccccc2[nH]1`, the IC50 is 2.08 µM in assay [1] (setting [6]); 4.13 µM in assay [1] (setting [7]); 3.1 µM in assay [2]; > 100 µM (inactive) in assay [3]; > 100 µM (inactive) in assay [4] (mean of runs); more than 100 µM in assay [4] (setting [6]). The IC50 in assay [4] (setting [7]), in assay [5] (setting [6]) and in assay [5] (setting [7]) was more than 100 µM throughout.
As to `COc1cccc2c1C(=O)c1c(O)c3c(c(O)c1C2=O)CC(O)(C(C)=NNC(=O)c1ccc(Cl)c(Cl)c1)CC3OC1CC(N)C(O)C(C)O1` (stereo not drawn), the IC50 in assay [1] (setting [6]) is 1.43 µM; in assay [1] (setting [7]), 0.476 µM; in assay [2], 0.954 µM; in assay [3], 7.16 µM; in assay [4] (mean of runs), 0.588 µM; in assay [4] (setting [6]), 0.717 µM. In addition, the IC50 worked out at 0.46 µM in assay [4] (setting [7]), 3.35 µM in assay [5] (setting [6]) and 11 µM in assay [5] (setting [7]).
Regarding `C/C(=N\NC(=O)c1c(C)nc2ccccn12)c1ccc(O)cc1O`, the IC50 in assay [1] (setting [6]) was 1.31 µM; in assay [1] (setting [7]), 0.534 µM; in assay [2] it was 0.922 µM; in assay [3] it was > 100 µM (inactive); in assay [4] (mean of runs), 62.8 µM (inactive); in assay [4] (setting [6]), more than 100 µM. For the same compound, the IC50 in assay [4] (setting [7]) was 25.5 µM; in assay [5] (setting [6]), more than 100 µM; in assay [5] (setting [7]), more than 100 µM.
In the case of `CCCCCCCNC(=O)C1(CC2CC(c3cccc(Br)c3)=NO2)CCNCC1` (stereo not drawn), the IC50 is 8.05 µM in assay [1] (setting [6]); 6.76 µM in assay [1] (setting [7]); 7.4 µM in assay [2]; 15.4 µM in assay [3]; 16.5 µM in assay [4] (mean of runs); 16.1 µM in assay [4] (setting [6]). The IC50 was determined as 16.9 µM in assay [4] (setting [7]), 13.5 µM in assay [5] (setting [6]) and 17.3 µM in assay [5] (setting [7]).
`O=C(CNc1ccccc1)N/N=C/c1c(O)ccc2ccccc12`: the IC50 in assay [1] (setting [6]) is 3.48 µM; in assay [1] (setting [7]) it was more than 100 µM; in assay [3], > 100 µM (inactive); in assay [4] (mean of runs) it was 51.1 µM (inactive); in assay [4] (setting [6]), 57.4 µM; in assay [4] (setting [7]) it was 44.9 µM. In addition, the IC50 in assay [5] (setting [6]) and in assay [5] (setting [7]) was more than 100 µM each time. Further, the IC50 entry in assay [2] was “inactive”.
As to `CC(=O)OC1(C)CC(C)C(=O)C(C(O)CC2CC(=O)NC(=O)C2)C1` (stereo not drawn), the IC50 in assay [1] (setting [6]) is 0.221 µM; in assay [1] (setting [7]), 0.385 µM; in assay [2] it was 0.303 µM; in assay [3] it was less than 0.2 µM; in assay [4] (mean of runs), less than 0.2 µM; in assay [4] (setting [6]), less than 0.2 µM. Moreover, the IC50 in assay [4] (setting [7]), in assay [5] (setting [6]) and in assay [5] (setting [7]) was less than 0.2 µM in each case.
For the compound `COc1ccc(/C=C2\SC(=S)N(CCCC(=O)NNC(=O)c3ccccc3O)C2=O)cc1`, the IC50 was 6.31 µM in assay [1] (setting [6]); 1.41 µM in assay [1] (setting [7]); 3.86 µM in assay [2]; 71.6 µM (inactive) in assay [4] (mean of runs); more than 100 µM in assay [4] (setting [6]); 43.3 µM in assay [4] (setting [7]). The half-inhibitory concentration (IC50) in assay [5] (setting [6]) is 21.9 µM; in assay [5] (setting [7]) it was more than 100 µM. Also, the IC50 result in assay [3] was “inactive”.
For `O=C(O)c1ccc(N/N=C/c2ccc3c(c2)OCO3)cc1`, the IC50 in assay [1] (setting [6]) was 1.24 µM; in assay [1] (setting [7]), 1.89 µM; in assay [2] it was 1.56 µM; in assay [3], 2.02 µM; in assay [4] (mean of runs), 52.3 µM (inactive); in assay [4] (setting [6]), 57.5 µM. Moreover, the IC50 worked out at 47.1 µM in assay [4] (setting [7]), 1.37 µM in assay [5] (setting [6]) and 2.67 µM in assay [5] (setting [7]).
Regarding `Cc1cc(C)c2sc(NNC(=O)c3ccc(S(=O)(=O)N4CCc5ccccc5C4)cc3)nc2c1`, the IC50 in assay [1] (setting [6]) is 0.939 µM; in assay [1] (setting [7]), 2.04 µM; in assay [2], 1.49 µM; in assay [3], 20.9 µM; in assay [4] (mean of runs), > 100 µM (inactive); in assay [4] (setting [6]), more than 100 µM. Further, the IC50 was more than 100 µM in assay [4] (setting [7]), 10.4 µM in assay [5] (setting [6]) and 31.5 µM in assay [5] (setting [7]).
On to `O=C(CCn1cnc(-c2ccccc2)c1-c1ccccc1)N/N=C/c1ccccc1O`, for which the IC50 is 5.32 µM in assay [1] (setting [6]); 4.93 µM in assay [1] (setting [7]); 5.13 µM in assay [2]; 63.2 µM (inactive) in assay [4] (mean of runs); more than 100 µM in assay [4] (setting [6]); 26.4 µM in assay [4] (setting [7]). Further, the IC50 in assay [5] (setting [6]) was 49.7 µM; in assay [5] (setting [7]) it was more than 100 µM. The IC50 result in assay [3] was “inactive”.
For `O=C(O)c1ccc(N/N=C/c2ccc3nccnc3c2)cc1`, the IC50 in assay [1] (setting [6]) was 1.26 µM; in assay [1] (setting [7]), 1.36 µM; in assay [2] it was 1.31 µM; in assay [3], 1.38 µM; in assay [4] (mean of runs) it was > 100 µM (inactive); in assay [4] (setting [6]) it was more than 100 µM. Further, the IC50 in assay [4] (setting [7]) was more than 100 µM; in assay [5] (setting [6]) it was 1.36 µM; in assay [5] (setting [7]), 1.41 µM.
Regarding `CC(=O)NC(c1ccc(Cl)cc1)c1ccc2cccnc2c1O` (stereo not drawn), the IC50 is 1.47 µM in assay [1] (setting [6]); 2.04 µM in assay [1] (setting [7]); 1.75 µM in assay [2]; > 100 µM (inactive) in assay [4] (mean of runs); more than 100 µM in assay [4] (setting [6]); more than 100 µM in assay [4] (setting [7]). Besides, the IC50 in assay [5] (setting [6]) came out at 58.8 µM; in assay [5] (setting [7]), 56 µM. In addition, the IC50 result in assay [3] was “inactive”.
Turning to `COc1ccc(Nc2ncnc3ccc(Br)cc23)c(OC)c1`, the IC50 is 0.293 µM in assay [1] (setting [6]); 0.246 µM in assay [1] (setting [7]); 0.27 µM in assay [2]; 0.974 µM in assay [3]; > 100 µM (inactive) in assay [4] (mean of runs); more than 100 µM in assay [4] (setting [6]). Besides, the IC50 in assay [4] (setting [7]) was more than 100 µM; in assay [5] (setting [6]) it was 0.864 µM; in assay [5] (setting [7]) it was 1.08 µM.
